According to US20130116251A1, “Novel HSP90 Inhibitor” (Nippon Kayaku Kabushiki Kaisha, priority 2005, published 2013):
Structures can show the parent of a compound that is named as a salt.

What was measured:
[1] = target: rHSP90; assay: HSP90 binding assay (BIACORE SPR; inhibition of binding between rHSP90 and fixed herbimycin A); conditions: concentration inhibiting binding between rHSP90 (50 μg/mL) and fixed herbimycin A by 50%, BIACORE-X SPR; read-out: HSP90 inhibitory activity IC50
Excerpt: The HSP90 binding assay system is a system for detecting the change of mass as SPR signal caused by the binding between herbimycin A fixed on a sensor chip and rHSP90 by BIACORE-X, in which 17-(6-amino hexylamino)herbimycin A is fixed through a carboxyl group on the surface of the sensor chip (CM5, BIACORE) on which carboxymethyldextran has been introduced. The method was according to the protocol of BIACORE. In addition, 17-(6-aminohexylamino)herbimycin A was synthesizes as described below.
rHSP90 (Stressgen Biotechnologies Corp., Victoria, BC Canada) at 50 μg/mL was exposed for 10 seconds to the surface of the sensor chip on which herbimycin A was fixed and the SPR signal (numerical value of interaction) was detected.
After mixing rHSP90 protein (5×10^−7M (50 μg/mL)) with the triazole derivative of the present invention, the mixture was exposed for 10 seconds to the surface of the sensor chip on which herbimycin A was fixed, and the SPR signal was measured by BIACORE-X.
Next, using following formula (1), the inhibitory activity (binding inhibition rate (%)) of the compound of the present invention to the binding between rHSP90 and fixed herbimycin A was obtained.
binding inhibition rate(%)=((b−s)/b)×100 Formula (1)
wherein b is the SPR signal when the compound of the present invention is not added to the sample: s is the SPR signal when the compound of the present invention is added to the sample.

[2] = test system: Human breast cancer cells (MCF7); assay: Antiproliferative activity on MCF7 cells (methylene blue method); type: cell-based; conditions: Homo sapiens, MCF7, 72 h, MCF7 cells, 72 hours treatment, 660 nm absorbance after methylene blue staining; read-out: Antiproliferative activity IC50
Experimental: Human breast cancer cells (MCF7) were treated with samples of various concentrations of known HSP90 inhibitors (that is, geldanamycin, herbimycin, radicicol and PU3) and the compounds of the present invention for 72 hours to confirm the effect of the triazole derivatives of the present invention on the cell growth. The cell ratio after the drug treatment was evaluated by measuring 660 nm absorbance by a microplate reader (BioRad) after staining the cells with the methylene blue method.
Cells were distributed to wells of 96 well plates at 2000 cells per well and treated with drugs 24 hours later. Further, the medium was removed 72 hours later and the cells were fixed by adding 50 μl of methanol and standing at room temperature for 2 minutes. After removing methanol, 100 μl of a staining solution was added and stained for 30 minutes. After washing 3 times with 200 μl of distilled water, 3% HCl solution was added, and the 660 nm absorbance of methylene blue was measured by a microplate reader (BioRad).
Next, the antiproliferative activity rate (%) was obtained by the formula (2) below.
Antiproliferative activity rate(%)=((B−A)/B)×100 Formula (2)
wherein B is 660 nm absorbance of the sample when the compound of the present invention is not added, and A is 660 nm absorbance of the sample when the compound of the present invention is added.
From the concentration of the triazole derivative of the present invention and the antiproliferative activity rate, the concentration was obtained using the above formula, at which the cell growth was suppressed by 50% by comparing with the control, and termed an IC50 value.
The antiproliferative activity rate (%) was obtained for SH-b04, SH-b05 and SH-b06 described above by a similar manner to that of the triazole derivatives of the present invention.

[3] = test system: HSP90 client protein Her2 in MCF7 cells; assay: Measurement test for amount of HSP90 client protein Her2 (Western blotting); type: cell-based; conditions: MCF7 cells treated 16 hours at 3-5 concentrations
Experimental: (§1) MCF7 cells (American Type Culture Collection, Rockville, Md.) were treated with the compounds of the present invention at various concentrations for 16 hours to confirm that the HSP90 inhibitors of the present invention induce a depression of intracellular concentration of the client protein or target polypeptide that bind to HSP90. The amount of the HSP90 client protein Her2 and ERα was evaluated by the Western blotting method.
(§2) One million cells were seeded in a 6 cm dish, and 24 hours later the compounds of the present invention (Example 1-2, Example 2-1, Example 2-13, Example 2-2, Example 3-4, Example 2-5, Example 3-16, Example 3-6, Example 2-7, Example 3-27, Example 2-10 and Example 3-18) were added. Cells treated with the compounds were washed, mixed with 150 μl of lysis buffer (RIPA, 150 mM NaCl, 1% NP40, 0.1% deoxycholate (sodium salt), 0.1% SDS, 1 mM EDTA, 10 mM Tris-HCl (pH 8.0)) and incubated at 4° C. for 30 minutes. The cell lysates were centrifuged (15,000 rpm, 20 minutes) and protein (20 μg) of the supernatant was subjected to SDS polyacrylamide gel electrophoresis (SDS-PAGE). After finishing the electrophoresis, proteins in the gel were transferred to a PVDF membrane. The membrane after the transfer was treated with a primary antibody against the HSP90 client protein (anti Her2 or anti ERa antibody, both from Santa Cruz Biotechnology, Santa Cruz, Calif.), then treated with secondary antibodies (anti-rabbit Ig, horse radish peroxidase conjugated F(ab′)2 fragment (derived from donkey): Amersham Biosciences, UK Limited, Buckinghamhshire, UK.) and then the amount of the client protein was detected as the intensity of chemiluminescence signal with a chemiluminescence reagent (ECL: Amersham Biosciences UK Limited, Buckinghamshire, UK).

[4] = test system: HSP90 client protein ERα in MCF7 cells; assay: Measurement test for amount of HSP90 client protein ERα (Western blotting); type: cell-based; conditions: MCF7 cells treated 16 hours at 3-5 concentrations
Experimental: as §1, §2

[5] = test system: Human lung cancer H460; assay: Antitumor effect on nude mice transplanted with human lung cancer H460; type: in vivo; conditions: tail vein, starting day = 1.0
Experimental: Antitumor Effect on Nude Mice Transplanted with Human Lung Cancer
Human lung cancer H460 tumor fragment, which had been passaged subcutaneously in nude mice, was made into about 3 mm fragment and transplanted subcutaneously to the back of nude mice using a trocar. When the tumor volume grew to about 50 mm^3 or above, the compound of the present invention was administered to the tail vein once a day for 5 or 7 days every day. The compound of the present invention was dissolved in DMSO, mixed with TWEEN 80, and then diluted with a 5% glucose injection solution and used. The vehicle of the compound was administered to the control group of OH-a01. The control groups in other experiments were not treated. The tumor volume was measured on the first administration day and on the evaluation day (7 or 8 days after the start of the administration), and the relative tumor volume of the evaluation day was obtained from the tumor volume on the first administration day. Further, the tumor volume was calculated by measuring the major axis (Lmm) and minor axis (Wmm) of the tumor and by the formula (L×W^2)/2.
Relative tumor volume represents the average relative tumor volume on day 7 after the start of the administration, assuming the tumor volume of the starting day is 1.0.
Relative tumor volume represents the average relative tumor volume on day 8 after the start of the administration, assuming the tumor volume of the starting day is 1.0.

[6] = Table 10, 100 mg/kg/day, 5 days continuous, day 8, control group 6.5 ± 2.0

| melting point | IC50 [1] [nM] | IC50 [2] [nM] | Structure (SMILES) | amount of HSP90 client protein Her2 [3] | amount of HSP90 client protein ERα [4] | Relative tumor volume (Average ± SD) ([5]; Table 8, 3.8 mg/kg/day, 7 days continuous, day 7, control group 7.3 ± 1.7) | Relative tumor volume (Average ± SD) ([5]; Table 8, 7.5 mg/kg/day, 7 days continuous, day 7, control group 7.3 ± 1.7) | Relative tumor volume (Average ± SD) ([5]; Table 9, 75 mg/kg/day, 5 days continuous, day 8, control group 4.6 ± 3.1) | Relative tumor volume (Average ± SD) ([5]; Table 9, 150 mg/kg/day, 5 days continuous, day 8, control group 4.6 ± 3.1) | Relative tumor volume (Average ± SD) ([5]; Table 10, 50 mg/kg/day, 5 days continuous, day 8, control group 6.5 ± 2.0) | Relative tumor volume (Average ± SD) [5, 6] | Relative tumor volume (Average ± SD) ([5]; Table 10, 150 mg/kg/day, 5 days continuous, day 8, control group 6.5 ± 2.0) |
| --- | --- | --- | --- | --- | --- | --- | --- | --- | --- | --- | --- | --- |
| 233 °C (dec.) |  |  | COc1ccc(-n2c(-c3cc(C(C)C)c(O)cc3O)nnc2S(=O)(=O)CCCN(C)C)cc1 (as salt: hydrochloride) [SFN2-a08, 4-[5-(3-dimethylamino-propane-1-sulfonyl)-4-(4-methoxy-phenyl)-4H-[1,2,4]triazol-3-yl]-6-isopropyl-benzene-1,3-diol] |  |  |  |  |  |  |  |  |  |
|  | 290 | 180 | COc1ccc(-n2c(NS(C)(=O)=O)nnc2-c2cc(C(C)C)c(O)cc2O)cc1 [Example N1-a08, N-[5-(2,4-dihydroxy-5-isopropyl-phenyl)-4-(4-methoxy-phenyl)-4H-[1,2,4]triazol-3-yl]-methanesulfonamide] | depression | depression |  |  |  |  |  |  |  |
|  | 140 | 4.9 | CC(C)c1cc(-c2n[nH]c(=O)n2-c2ccc(N3CCOCC3)cc2)c(O)cc1O [OH-a01, 4-{5-hydroxy-4-[4-(morpholin-4-yl)-phenyl]-4H-[1,2,4]triazol-3-yl}-6-isopropyl-benzene-1,3-diol] | depression | depression | 3.3 ± 0.7 | 1.7 ± 0.5 |  |  |  |  |  |
|  | 180 | 16 | CC(C)c1cc(-c2n[nH]c(=O)n2-c2ccc(CN3CCOCC3)cc2)c(O)cc1O [OH-a02, 4-{5-hydroxy-4-[4-(morpholin-4-ylmethyl)-phenyl]-4H-[1,2,4]triazol-3-yl}-6-isopropyl-benzene-1,3-diol] | depression | depression |  |  | 3.5 ± 2.3 | 2.1 ± 0.1 |  |  |  |
|  | 220 | 77 | CC(C)c1cc(-c2n[nH]c(=O)n2-c2ccc(O)cc2)c(O)cc1O [OH-a11, 5-(2,4-dihydroxy-5-isopropylphenyl)-4-(4-hydroxyphenyl)-4H-[1,2,4]triazol-3-one] | depression | depression |  |  |  |  |  |  |  |
|  | 250 | 71 | CC(C)c1cc(-c2n[nH]c(=O)n2-c2ccc(CN3CCN(C)CC3)cc2)c(O)cc1O [OH-a13, 5-(2,4-dihydroxy-5-isopropylphenyl)-4-[4-(4-methylpiperazin-1-ylmethyl)phenyl]-2,4-dihydro-[1,2,4]triazol-3-one] | depression | depression |  |  |  |  | 1.4 ± 0.5 | 1.1 ± 0.3 |  |
| 261 to 262 °C (dec.) | 130 | 38 | CC(C)c1cc(-c2n[nH]c(=O)n2C(C)C)c(O)cc1O [OH-a21, 5-(2,4-dihydroxy-5-isopropyl-phenyl)-4-isopropyl-2,4-dihydro-[1,2,4]triazol-3-one] | depression | depression |  |  |  |  |  |  |  |
|  | 700 | 69 | COc1ccc(-n2c(-c3cc(C(C)C)c(O)cc3O)nnc2S(=O)(=O)CCCN(C)C)cc1 [SFN2-a08, 4-[5-(3-dimethylamino-propane-1-sulfonyl)-4-(4-methoxy-phenyl)-4H-[1,2,4]triazol-3-yl]-6-isopropyl-benzene-1,3-diol] | depression | depression |  |  |  |  |  |  |  |
|  | 590 | 44 | COc1ccc(-n2c(-c3cc(C(C)C)c(O)cc3O)nnc2S(=O)(=O)CCCN2CCCCC2)cc1 [SFN3-a08, 4-isopropyl-6-[4-(4-methoxy-phenyl)-5-(3-piperidin-1-yl-propane-1-sulfonyl)-4H-[1,2,4]triazol-3-yl]-benzene-1,3-diol] | depression | depression |  |  |  |  |  | 5.4 ± 1.3 | 2.9 ± 0.6 |
|  | 120 | 150 | CC(C)c1cc(-c2nnc(S(C)(=O)=O)n2-c2ccc(CN3CCOCC3)cc2)c(O)cc1O [SFN-a02, 4-isopropyl-6-{5-methanesulfonyl-4-[4-(morpholin-4-ylmethyl)-phenyl]-4H-[1,2,4]triazol-3-yl}-benzene-1,3-diol] | depression | depression |  |  |  |  |  |  |  |
|  | 94 | 270 | COc1ccc(-n2c(-c3cc(C(C)C)c(O)cc3O)nnc2S(C)(=O)=O)cc1 [SFN-a08, 4-isopropyl-6-[5-methanesulfonyl-4-(4-methoxy-phenyl)-4H-[1,2,4]triazol-3-yl]-benzene-1,3-diol] | depression | depression |  |  |  |  |  |  |  |
|  | 240 | 36 | CC(C)c1cc(-c2n[nH]c(=S)n2-c2ccc(CN3CCOCC3)cc2)c(O)cc1O [SH-a02, 4-isopropyl-6-{5-mercapto-4-[4-(morpholin-4-ylmethyl)-phenyl]-4H-[1,2,4]triazol-3-yl}-benzene-1,3-diol] | depression | depression |  |  |  |  |  |  |  |
